In ChEMBL document CHEMBL4295262, “Evaluation of the utility of stem-cell derived cardiomyocytes for drug proarrhythmic potential” (2019):

Key:
Settings in all cases: human, ipsc-cm
[1] = (§1) Electrical activity assay on cell lines treated with a given drug. DMSO was used as a vehicle and a control, unblinded dofetilide was used as a control.; assay type: ADME, cell-based
[2] = as §1; assay type: ADME, cell-based; design: FPDc: unit not given here
[3] = as §1
[4] = as §1; assay type: ADME, cell-based; remark: listed apart in the source
[5] = as §1; remark: listed apart in the source
[6] = as §1; remark: listed apart in the source
[7] = 0.1 µM, concentration (um) 0.1 uM
[8] = 10 µM, concentration (um) 10 uM
[9] = 100 µM, concentration (um) 100 uM
[10] = 0.03 µM, concentration (um) 0.03 uM
[11] = 0.01 µM, concentration (um) 0.01 uM
[12] = 0.09507 µM, concentration (um) 0.0950736 uM
[13] = 0.3004 µM, concentration (um) 0.300433 uM
[14] = 0.9494 µM, concentration (um) 0.949367 uM

With `COc1ccccc1OCC(O)CN1CCN(CC(=O)Nc2c(C)cccc2C)CC1` (centres undefined) [RANOLAZINE] the FPD measurement [1, 7] was 5 Values Out Of 5 Were Excluded Due To Quiescence Or 0 Apdc, the FPDc [1, 7] was 23.9 and the FPD measurement ([1]; 1 µM, concentration (um) 1 uM) was 5 Values Out Of 5 Were Excluded Due To Quiescence Or 0 Apdc. For the same compound, the FPDc ([1]; 1 µM, concentration (um) 1 uM) was 22.6, the FPD measurement [1, 8] was 5 Values Out Of 5 Were Excluded Due To Quiescence Or 0 Apdc and the FPDc [1, 8] was 23.41. For the same compound, the FPD measurement [1, 9] was “More Than Half The Wells Had A Quiescence Event Or Apdc Readings Of 0”, the FPDc [1, 9] was “More Than Half The Wells Had A Quiescence Event Or Fpdc Readings Of 0” and the FPDc [2, 7] was 63.44. For the same compound, the FPD measurement ([2]; 1 µM, concentration (um) 1 uM) was 5 Values Out Of 5 Were Excluded Due To Quiescence Or 0 Apdc, the FPDc ([2]; 1 µM, concentration (um) 1 uM) was 57.19 and the FPDc [2, 8] was 48.79. The FPDc [2, 9] was 47.75, the APDc ([3]; 0.1 µM) was 65.99 and the FPD measurement ([3]; 0.1 µM) was 65.99 FPDc. It also gave an APDc ([3]; 1 µM) of 53.66, an FPD measurement ([3]; 1 µM) of 53.66 FPDc and an APDc ([3]; 10 µM) of 57.23. The FPD measurement ([3]; 10 µM) was 57.23 FPDc, the APDc ([3]; 100 µM) was 60.49 and the FPD measurement ([3]; 100 µM) was 60.49 FPDc. The FPD measurement [4, 7] was 51.73 FPDc, the FPDc [4, 7] was 6 Values Out Of 6 Were Excluded Due To Quiescence Or 0 Fpdc and the FPD measurement ([4]; 1 µM, concentration (um) 1 uM) was 54.52 FPDc. The FPDc ([4]; 1 µM, concentration (um) 1 uM) was 6 Values Out Of 6 Were Excluded Due To Quiescence Or 0 Fpdc, the FPD measurement [4, 8] was 75.35 FPDc and the FPDc [4, 8] was 6 Values Out Of 6 Were Excluded Due To Quiescence Or 0 Fpdc. The FPDc [4, 9] was 6 Values Out Of 6 Were Excluded Due To Quiescence Or 0 Fpdc.
With `Cc1nccn1CC1CCc2c(c3ccccc3n2C)C1=O` (centres undefined) [ONDANSETRON] the FPD measurement [2, 10] was 5 Values Out Of 5 Were Excluded Due To Quiescence Or 0 Apdc, the FPDc [2, 10] was 29.28 and the FPDc ([2]; 0.3 µM, concentration (um) 0.3 uM) was 58.03. It also gave an FPDc ([2]; 3 µM, concentration (um) 3 uM) of 37.01, an FPDc ([2]; 30 µM, concentration (um) 30 uM) of 17.75 and an FPD measurement ([5]; 0.03 µM) of 54.59 FPDc. The FPDc ([5]; 0.03 µM) was 54.59, the FPD measurement ([5]; 0.3 µM) was 58.58 FPDc and the FPDc ([5]; 0.3 µM) was 58.58. For the same compound, the FPD measurement ([5]; 3 µM) was 68.22 FPDc, the FPDc ([5]; 3 µM) was 68.22 and the FPD measurement ([5]; 30 µM) was “More Than Half The Wells Had A Quiescence Event Or Fpdc Readings Of 0”. For the same compound, the FPDc ([5]; 30 µM) was “More Than Half The Wells Had A Quiescence Event Or Fpdc Readings Of 0”, the FPD measurement ([6]; 0.03 µM) was 1 Values Out Of 1 Were Excluded Due To Quiescence Or 0 Fpdc and the FPDc ([6]; 0.03 µM) was 1 Values Out Of 1 Were Excluded Due To Quiescence Or 0 Fpdc. For the same compound, the FPD measurement ([6]; 0.3 µM) was 1 Values Out Of 1 Were Excluded Due To Quiescence Or 0 Fpdc, the FPDc ([6]; 0.3 µM) was 1 Values Out Of 1 Were Excluded Due To Quiescence Or 0 Fpdc and the FPD measurement ([6]; 3 µM) was 1 Values Out Of 1 Were Excluded Due To Quiescence Or 0 Fpdc. The FPDc ([6]; 3 µM) was 1 Values Out Of 1 Were Excluded Due To Quiescence Or 0 Fpdc, the FPD measurement ([6]; 30 µM) was 1 Values Out Of 1 Were Excluded Due To Quiescence Or 0 Fpdc and the FPDc ([6]; 30 µM) was 1 Values Out Of 1 Were Excluded Due To Quiescence Or 0 Fpdc.
For `COc1cc2c(Nc3ccc(Br)cc3F)ncnc2cc1OCC1CCN(C)CC1` [VANDETANIB], the FPD measurement [1, 11] was 5 Values Out Of 5 Were Excluded Due To Quiescence Or 0 Apdc, the FPDc [1, 11] was 21.62 and the FPD measurement [1, 7] was 5 Values Out Of 5 Were Excluded Due To Quiescence Or 0 Apdc. The FPDc [1, 7] was 20.73, the FPD measurement ([1]; 1 µM, concentration (um) 1 uM) was 5 Values Out Of 5 Were Excluded Due To Quiescence Or 0 Apdc and the FPDc ([1]; 1 µM, concentration (um) 1 uM) was 22.97. The FPD measurement [1, 8] was 5 Values Out Of 5 Were Excluded Due To Quiescence Or 0 Apdc, the FPDc [1, 8] was 5 Values Out Of 5 Were Excluded Due To Quiescence Or 0 Fpdc and the FPD measurement [2, 11] was 5 Values Out Of 5 Were Excluded Due To Quiescence Or 0 Apdc. For the same compound, the FPDc [2, 11] was 55.57, the FPD measurement [2, 7] was 5 Values Out Of 5 Were Excluded Due To Quiescence Or 0 Apdc and the FPDc [2, 7] was 48.34. For the same compound, the FPD measurement ([2]; 1 µM, concentration (um) 1 uM) was 5 Values Out Of 5 Were Excluded Due To Quiescence Or 0 Apdc, the FPDc ([2]; 1 µM, concentration (um) 1 uM) was 57.73 and the FPD measurement [2, 8] was 5 Values Out Of 5 Were Excluded Due To Quiescence Or 0 Apdc. It also gave an FPDc [2, 8] of 73.71, an APDc ([3]; 0.01 µM) of 51.06 and an FPD measurement ([3]; 0.01 µM) of 51.06 FPDc. For the same compound, the APDc ([3]; 0.1 µM) was 61.45, the FPD measurement ([3]; 0.1 µM) was 61.45 FPDc and the APDc ([3]; 1 µM) was 63.98. For the same compound, the FPD measurement ([3]; 1 µM) was 63.98 FPDc, the APDc ([3]; 10 µM) was 78.14 and the FPD measurement ([3]; 10 µM) was 78.14 FPDc. The FPD measurement [4, 11] was 50.93 FPDc, the FPDc [4, 11] was 6 Values Out Of 6 Were Excluded Due To Quiescence Or 0 Fpdc and the FPD measurement [4, 7] was 55.37 FPDc. For the same compound, the FPDc [4, 7] was 6 Values Out Of 6 Were Excluded Due To Quiescence Or 0 Fpdc, the FPD measurement ([4]; 1 µM, concentration (um) 1 uM) was 118.9 FPDc and the FPDc ([4]; 1 µM, concentration (um) 1 uM) was 6 Values Out Of 6 Were Excluded Due To Quiescence Or 0 Fpdc. The FPDc [4, 8] was 6 Values Out Of 6 Were Excluded Due To Quiescence Or 0 Fpdc.
In the case of `CC(C)NCC(O)c1ccc(NS(C)(=O)=O)cc1` (centres undefined) [SOTALOL], the FPD measurement [1, 7] is reported as 5 Values Out Of 5 Were Excluded Due To Quiescence Or 0 Apdc, the FPDc [1, 7] is reported as 22.36 and the FPD measurement ([1]; 1 µM, concentration (um) 1 uM) is reported as 5 Values Out Of 5 Were Excluded Due To Quiescence Or 0 Apdc. For the same compound, the FPDc ([1]; 1 µM, concentration (um) 1 uM) was 20.88, the FPD measurement [1, 8] was 5 Values Out Of 5 Were Excluded Due To Quiescence Or 0 Apdc and the FPDc [1, 8] was 24.73. The FPD measurement [1, 9] was “More Than Half The Wells Had A Quiescence Event Or Apdc Readings Of 0”, the FPDc [1, 9] was “More Than Half The Wells Had A Quiescence Event Or Fpdc Readings Of 0” and the FPD measurement [2, 7] was 5 Values Out Of 5 Were Excluded Due To Quiescence Or 0 Apdc. The FPDc [2, 7] was 44.43, the FPD measurement ([2]; 1 µM, concentration (um) 1 uM) was 5 Values Out Of 5 Were Excluded Due To Quiescence Or 0 Apdc and the FPDc ([2]; 1 µM, concentration (um) 1 uM) was 41.07. For the same compound, the FPD measurement [2, 8] was 5 Values Out Of 5 Were Excluded Due To Quiescence Or 0 Apdc, the FPDc [2, 8] was 57.04 and the FPD measurement [2, 9] was 5 Values Out Of 5 Were Excluded Due To Quiescence Or 0 Apdc. It also gave an FPDc [2, 9] of 45.01, an APDc ([3]; 0.1 µM) of 62.02 and an FPD measurement ([3]; 0.1 µM) of 62.02 FPDc. The APDc ([3]; 1 µM) was 63.35, the FPD measurement ([3]; 1 µM) was 63.35 FPDc and the APDc ([3]; 10 µM) was 71.54. The FPD measurement ([3]; 10 µM) was 71.54 FPDc, the APDc ([3]; 100 µM) was 79.39 and the FPD measurement ([3]; 100 µM) was 79.39 FPDc. For the same compound, the FPD measurement [4, 7] was 50.96 FPDc, the FPDc [4, 7] was 6 Values Out Of 6 Were Excluded Due To Quiescence Or 0 Fpdc and the FPD measurement ([4]; 1 µM, concentration (um) 1 uM) was 54.95 FPDc. For the same compound, the FPDc ([4]; 1 µM, concentration (um) 1 uM) was 6 Values Out Of 6 Were Excluded Due To Quiescence Or 0 Fpdc, the FPD measurement [4, 8] was 164 FPDc and the FPDc [4, 8] was 6 Values Out Of 6 Were Excluded Due To Quiescence Or 0 Fpdc. For the same compound, the FPDc [4, 9] was 6 Values Out Of 6 Were Excluded Due To Quiescence Or 0 Fpdc.
In the case of `CC/C(=C(\c1ccccc1)c1ccc(OCCN(C)C)cc1)c1ccccc1` [TAMOXIFEN], the FPD measurement [1, 12] is reported as 5 Values Out Of 5 Were Excluded Due To Quiescence Or 0 Apdc, the FPDc [1, 12] is reported as 19.16 and the FPD measurement [1, 13] is reported as 5 Values Out Of 5 Were Excluded Due To Quiescence Or 0 Apdc. For the same compound, the FPDc [1, 13] was 19.98, the FPD measurement [1, 14] was 5 Values Out Of 5 Were Excluded Due To Quiescence Or 0 Apdc and the FPDc [1, 14] was 19.22. For the same compound, the FPD measurement ([1]; 3 µM, concentration (um) 3 uM) was 5 Values Out Of 5 Were Excluded Due To Quiescence Or 0 Apdc, the FPDc ([1]; 3 µM, concentration (um) 3 uM) was 16.9 and the FPD measurement [2, 12] was 5 Values Out Of 5 Were Excluded Due To Quiescence Or 0 Apdc. The FPDc [2, 12] was 53.17, the FPD measurement [2, 13] was 5 Values Out Of 5 Were Excluded Due To Quiescence Or 0 Apdc and the FPDc [2, 13] was 49.96. The FPD measurement [2, 14] was 5 Values Out Of 5 Were Excluded Due To Quiescence Or 0 Apdc, the FPDc [2, 14] was 53.33 and the FPD measurement ([2]; 3 µM, concentration (um) 3 uM) was 5 Values Out Of 5 Were Excluded Due To Quiescence Or 0 Apdc. The FPDc ([2]; 3 µM, concentration (um) 3 uM) was 51.88, the FPD measurement [4, 12] was 46.23 FPDc and the FPDc [4, 12] was 6 Values Out Of 6 Were Excluded Due To Quiescence Or 0 Fpdc. The FPD measurement [4, 13] was 47.89 FPDc, the FPDc [4, 13] was 6 Values Out Of 6 Were Excluded Due To Quiescence Or 0 Fpdc and the FPD measurement [4, 14] was 110.7 FPDc. For the same compound, the FPDc [4, 14] was 6 Values Out Of 6 Were Excluded Due To Quiescence Or 0 Fpdc and the FPDc ([4]; 3 µM, concentration (um) 3 uM) was 6 Values Out Of 6 Were Excluded Due To Quiescence Or 0 Fpdc.
